Results on 6 compounds are retold here after patent US20250230193A1, “CYCLIC COMPOUND HAVING SELECTIVE KRAS INHIBITORY EFFECT ON HRAS AND NRAS” (CHUGAI SEIYAKU KABUSHIKI KAISHA, priority 2022, published 2025).

*1 amine or outer side, *2 acyl side, *3 side chain or, on linkers, in order; H or OH if unused. Where a SMILES comes first, the peptide text is derived from it. Bridges are numbered along the chain shown (N, C = ends). [ ]: non-standard residue; d: D form. The star is where a group is joined. hPhe(3-Cl-4-CF3) = N[C@@H](CCc1ccc(C(F)(F)F)c(Cl)c1)C(=O)O; NPrPhe(4-CF3) = CCCN[C@@H](Cc1ccc(C(F)(F)F)cc1)C(=O)O; X39 = Cc1ccc(C[C@@H](C(=O)[*:2])N(CC(C)C)[*:1])cc1; NMeGly(cPent) = CN[C@H](C(=O)O)C1CCCC1; Pro(4,4-Me2) = CC1(C)CN[C@H](C(=O)O)C1; NMeD = CN[C@@H](CC(=O)O)C(=O)O; NMeL = CN[C@@H](CC(C)C)C(=O)O; Morpholide = C1CN(*)CCO1; NMeA = CN[C@@H](C)C(=O)O; Ac5c = NC1(C(=O)O)CCCC1; Aze = O=C(O)[C@@H]1CCN1; NEtG = CCNCC(=O)O; Sar = CNCC(=O)O

Experiment [1] has as its target GDP-bound HRAS wild-type protein (Homo sapiens, UniProt P01112). The experiment is described as follows: Binding to HRAS by surface plasmon resonance (SPR), Single Cycle Kinetics. Conditions: for HRAS/KRAS (ratio of KD value for HRAS to KD value for KRAS): GDP-bound HRAS wild-type vs GDP-bound KRAS wild-type. Background: SPR reads the build-up and loss of mass on a sensor chip optically.

Experiment [2] addresses GDP-bound NRAS wild-type protein (Homo sapiens, UniProt P01111). Briefly: Binding to NRAS by surface plasmon resonance (SPR), Single Cycle Kinetics. Conditions: for NRAS/KRAS (ratio of KD value for NRAS to KD value for KRAS): GDP-bound NRAS wild-type vs GDP-bound KRAS wild-type.

Chain of GDP-bound NRAS wild-type protein (P01111 whole entry): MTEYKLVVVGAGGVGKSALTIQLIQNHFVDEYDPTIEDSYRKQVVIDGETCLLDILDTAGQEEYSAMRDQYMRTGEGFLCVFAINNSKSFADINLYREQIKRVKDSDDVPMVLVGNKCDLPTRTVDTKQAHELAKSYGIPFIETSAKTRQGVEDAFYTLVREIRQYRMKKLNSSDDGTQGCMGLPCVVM
Chain of GDP-bound HRAS wild-type protein (P01112 whole entry): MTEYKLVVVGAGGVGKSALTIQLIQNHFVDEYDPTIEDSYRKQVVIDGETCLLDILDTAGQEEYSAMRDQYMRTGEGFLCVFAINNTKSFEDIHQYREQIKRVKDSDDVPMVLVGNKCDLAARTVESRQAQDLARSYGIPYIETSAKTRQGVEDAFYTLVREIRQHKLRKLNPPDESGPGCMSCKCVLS

Regarding `CC[C@H](C)[C@@H]1NC(=O)[C@H](CC(C)C)N(C)C(=O)C[C@@H](C(=O)N2CCOCC2)N(C)C(=O)[C@H](C2CCCC2)N(C)C(=O)C2(CCCC2)NC(=O)[C@@H]2CCCN2C(=O)[C@H](CCc2ccc(C(F)(F)F)c(Cl)c2)NC(=O)CN(C)C(=O)[C@H](Cc2ccc(C)cc2)N(CC(C)C)C(=O)[C@@H]2CCN2C(=O)[C@H](C)N(C)C1=O` [PP0056] ([NMeL]I[NMeA][Aze][X39][Sar][hPhe(3-Cl-4-CF3)]P[Ac5c][NMeGly(cPent)][NMeD]-Morpholide; lactam N-11), the “HRAS/KRAS (ratio of KD for GDP-bound HRAS wild-type to KD for KRAS)” value in experiment [1] (KD ratio HRAS/KRAS, SPR) was “B (a compound having 3 or more and less than 10 is denoted as B)”. For the same compound, in experiment [2] (KD ratio NRAS/KRAS, SPR), the “NRAS/KRAS (ratio of KD for GDP-bound NRAS wild-type to KD for KRAS)” value is “C (A compound having a KD ratio of 0.1 or more and less than 3 is denoted as C)”.

As for `CCC[C@H]1C(=O)N[C@@H]([C@@H](C)CC)C(=O)N(C2CC2)CC(=O)N(C)[C@H]2C/C=C\CCN(C2=O)[C@@H](Cc2ccc(C(F)(F)F)cc2)C(=O)N(C)CC(=O)N[C@@H](CCc2ccc(C(F)(F)F)c(OC)c2)C(=O)N2C[C@H](OCC)C[C@H]2C(=O)N(C)C2(CCC2)C(=O)N(C)[C@@H](C2CCCC2)C(=O)N(C)[C@H](C(=O)N2CCCCC2)CC(=O)N1C` [PP3095, (2S,8S,12R,14S,20S,23S,27S,30S,36S,38Z)-20-cyclopentyl-32-cyclopropyl-12-ethoxy-8-[2-[3-methoxy-4-(trifluoromethyl)phenyl]ethyl]-4,16,19,22,26,35-hexamethyl-30-[(1S)-1-methylpropyl]-23-(piperidine-1-carbonyl)-27-propyl-2-[[4-(trifluoromethyl)phenyl]methyl]spiro[1,4,7,10,16,19,22,26,29,32,35-undecazatricyclo[34.5.1.0^10,14]dotetracont-38-ene-17,1′-cyclobutane]-3,6,9,15,18,21,25,28,31,34,42-undecone], the “HRAS/KRAS (ratio of KD value with respect to GDP-bound HRAS wild-type protein to KD value with respect to KRAS)” value in experiment [1] (KD ratio HRAS/KRAS, SPR, GDP-bound wild-type proteins) was “A (a compound having 10 or more and less than 20 is denoted as A)”. The “NRAS/KRAS (ratio of KD value with respect to GDP-bound NRAS wild-type protein to KD value with respect to KRAS)” value in experiment [2] (KD ratio NRAS/KRAS, SPR, GDP-bound wild-type proteins) was “A (a compound having 10 or more and less than 20 is denoted as A)”.

Take `CCCN1C(=O)[C@@H]2CCN2C(=O)[C@H](C)N(C)C(=O)[C@H]([C@@H](C)CC)NC(=O)[C@H](CC(C)C)N(C)C(=O)C[C@@H](C(=O)N2CCOCC2)N(C)C(=O)[C@H](C2CCCC2)N(C)C(=O)C2(CCCC2)NC(=O)[C@@H]2CC(C)(C)CN2C(=O)[C@H](CCc2ccc(C(F)(F)F)c(Cl)c2)NC(=O)CN(C)C(=O)[C@@H]1Cc1ccc(C(F)(F)F)cc1` [PP0454] ([NMeL]I[NMeA][Aze][NPrPhe(4-CF3)][Sar][hPhe(3-Cl-4-CF3)][Pro(4,4-Me2)][Ac5c][NMeGly(cPent)][NMeD]-Morpholide; lactam N-11): the “HRAS/KRAS (ratio of KD value with respect to GDP-bound HRAS wild-type protein to KD value with respect to KRAS)” value in experiment [1] (KD ratio HRAS/KRAS, SPR) is “C (A compound having a KD ratio of 0.1 or more and less than 3 is denoted as C)”. The “NRAS/KRAS (ratio of KD value with respect to GDP-bound NRAS wild-type protein to KD value with respect to KRAS)” value in experiment [2] (KD ratio NRAS/KRAS, SPR) was “C (A compound having a KD ratio of 0.1 or more and less than 3 is denoted as C)”.

Take `CCCN1C(=O)CN(CC)C(=O)CNC(=O)[C@H]([C@@H](C)CC)NC(=O)[C@H](CC(C)C)N(C)C(=O)C[C@@H](C(=O)N2CCOCC2)N(C)C(=O)[C@H](C2CCCC2)N(C)C(=O)C2(CCCC2)NC(=O)[C@@H]2CCCN2C(=O)[C@H](CCc2ccc(C(F)(F)F)c(Cl)c2)NC(=O)CN(C)C(=O)[C@@H]1Cc1ccc(C(F)(F)F)cc1` [PP1968] ([NMeL]IG[NEtG][NPrPhe(4-CF3)][Sar][hPhe(3-Cl-4-CF3)]P[Ac5c][NMeGly(cPent)][NMeD]-Morpholide; lactam N-11): the “HRAS/KRAS (ratio of KD value for HRAS to KD value for KRAS)” value in experiment [1] (SPR) was “C (A compound having a KD ratio of 0.1 or more and less than 3 is denoted as C)”. For the same compound, the “NRAS/KRAS (ratio of KD value for NRAS to KD value for KRAS)” value in experiment [2] (SPR) was “C (A compound having a KD ratio of 0.1 or more and less than 3 is denoted as C)”.

In the case of `C#CC[C@H]1C(=O)N[C@@H]([C@@H](C)CC)C(=O)N(C)CC(=O)N(C)[C@H]2C/C=C\CCN(C2=O)[C@@H](Cc2ccc(C(F)(F)F)cc2)C(=O)N(C)CC(=O)N[C@@H](CCc2ccc(C(F)(F)F)c(OC)c2)C(=O)N2CC[C@H]2C(=O)NC2(CCC2)C(=O)N(C)[C@@H](C2CCCC2)C(=O)N(C)[C@H](C(=O)N(C)C)CC(=O)N1C` [PP2911], in experiment [1] (KD ratio HRAS/KRAS, class symbols), the “HRAS/KRAS (ratio of KD value with respect to GDP-bound HRAS wild-type protein to KD value with respect to KRAS)” value is “B (a compound having 3 or more and less than 10 is denoted as B)”. Besides, in experiment [2] (KD ratio NRAS/KRAS, class symbols), the “NRAS/KRAS (ratio of KD value with respect to GDP-bound NRAS wild-type protein to KD value with respect to KRAS)” value is “A (a compound having 10 or more and less than 20 is denoted as A)”.

With `CCCN(C)C(=O)[C@@H]1CC(=O)N(C)[C@@H](CC(F)(F)F)C(=O)N[C@@H]([C@@H](C)CC)C(=O)N(C)CC(=O)N(C)[C@H]2C/C=C\CCN(C2=O)[C@@H](Cc2ccc(C(F)(F)F)cc2)C(=O)N(C)CC(=O)N[C@@H](CCc2cc(F)c(C(F)(F)F)c(F)c2)C(=O)N2C[C@H](OCC)C[C@H]2C(=O)NC2(CCC2)C(=O)N(C)[C@@H](C2CCCC2)C(=O)N1C` [PP1702], in experiment [1] (SPR), the “HRAS/KRAS (ratio of KD value for HRAS to KD value for KRAS)” value was “A (a compound having 10 or more and less than 20 is denoted as A)”. Moreover, the “NRAS/KRAS (ratio of KD value for NRAS to KD value for KRAS)” value in experiment [2] (SPR) is “A (a compound having 10 or more and less than 20 is denoted as A)”.
